Test [1] has as its system NAD^+. Put plainly: NAD+ quantification. To be noted: WT and STING−/− THP1, cGAMP. It is filed as cell-based, human.
Test [2] deals with PARylation. Put plainly: PolyADP-ribosylation (PARylation) immunoblot. It is filed as cell-based, human. An excerpt: Cells were collected by centrifugation, washed once with ice-cold PBS, lysed in RIPA buffer and analyzed by western blot to detect PARylation using pADPr Antibody (Santa Cruz sc-56198).
Test [3] concerns one-cell fertilized C57BL/6J embryos. Nature of the test: CRISPR/Cas9 mediated gene editing in mouse embryos. It is filed as cell-based. To be noted: Rosa26 locus, 1 fmole/embryo cGAMP. The method, then:
CRISPR/Cas9 mediated gene editing in mouse embryos: Target sites were selected and gRNAs for these target sites were synthesized via in vitro transcription followed by column clean up and ethanol precipitation purification. One-cell fertilized C57BL/6J embryos were microinjected with a mixture of gRNA (50 ng/μl), ssODN (50 ng/μl, IDT, Table 2), and Cas9 protein (40 ng/μl, PNA Bio). […] Injected embryos were cultured to blastocysts then lysed to isolate genomic DNA. The edited locus (Rosa26) was amplified via PCR, and samples were indexed, pooled and run on a MiSeq Nano 2×250 Reagent Kit. Demultiplexed data was analyzed with CRISPResso (Pinello et al., 2016). Reads ambiguously categorized as “HDR/NHEJ” were manually sorted using a window 30 bp wide flanking the cut site, where reads identical to the expected HDR sequence were recategorized accordingly. Samples with fewer than 100 reads were excluded from analysis.

Test [4] relates to DDR signaling. Put plainly: DDR signaling immunoblotting in THP1 cells. (A western blot detects proteins with antibodies after separation by electrophoresis.)
In test [5] the test system is DDR signaling. Nature of the test: DDR signaling immunoblot in HEK293 cells. The test is classed as cell-based, human. To be noted: HEK293, 4 hours post transfection.
Test [6] has as its system THP1 cells. Put plainly: Quantitative RT-PCR gene expression in THP1 cells. The test is classed as cell-based, human. The source says: Quantitative RT-PCR analysis: Cells collected at indicated time points were washed with ice cold PBS and lysed in lml Trizol (Invitrogen). Total RNA extracted according to the manufacturer's recommendations was DNase treated and reverse transcribed to make cDNA with a QuantiTect Reverse Transcription kit (QIAGEN). The cDNAs synthesized were amplified by real-time quantitative PCR (Applied Biosystems 7900 HT Fast Real-Time PCR system) with Power SYBR green Master Mix. Relative gene expression was determined by the 2-ΔΔCt method, and 18S rRNA or GAPDH was used as an internal control. Primer details in Table 2.

Test [7] relates to U2OS-STING cells. Put plainly: RIF1 and phospho-53BP1 foci immunofluorescence. The test is classed as cell-based, human. To be noted: pretreated with cGAMP, then etoposide or camptothecin. The method, then: Immunofluorescence Staining: 16,500 adherent cells/cm^2 were plated on a gelatin coated 8-chamber slide (VWR, Catalogue #62407-296) and treated as indicated. Media was removed and cells were washed with 1×PBS with Ca^2+/Mg^2+ and fixed with 4% PFA for 20 minutes. Fixed cells were permeabilized with PBS+0.1% Triton-X and washed 3 times with PBS+0.1% Tween20. After treatment as indicated, non-adherent THP1 cells were collected by centrifugation, washed in cold PBS and fixed in PFA. Post-fixation, they were washed with PBS, spotted on gelatin coated “PTFE” Printed Slides (Electron Microscopy Sciences, Cat #63424-06), and air-dried. For γH2AX staining, permeabilized cells were blocked in Serum-free DAKO Protein Block (Agilent, Catalogue #X0909) for 1 hr at room temperature. Cells were incubated in primary antibody (γH2AX, 1:500; anti-HA, 1:100; Table 1) in DAKO antibody diluent at 4° C. overnight on a rocker platform. U2OS-STING cells undergoing Rad51 staining were first fixed in methanol for 20 minutes in −20° C., blocked for 1 hr with donkey block (2% normal donkey serum, 1% BSA, 0.1% Triton X 100, 0.05% Tween20, 0.05% Sodium Azide in PBS), then finally incubated in an anti-Rad51 antibody overnight at 4° C. (Bio-academia Cat #70-001, 1:6000 in 5% milk in TBST). […]

Test [8] concerns hRPE and U2OS-STING cells. Nature of the test: EdU incorporation assay. It is filed as cell-based, human. To be noted: 18 hours. The source says:
EdU incorporated cells were detected by confocal microscopy after Click-iT® EdU labeling following the manufacturer's protocol (Click-iT™ EdU Alexa Fluor™ 594 Imaging Kit, Thermo Fisher Cat #C10339).

SMILES strings stand for the structures.

On to `Nc1nc2c(ncn2[C@@H]2O[C@@H]3COP(=O)(O)O[C@H]4[C@@H](O)[C@H](n5cnc6c(N)ncnc65)O[C@@H]4COP(=O)(O)O[C@@H]2[C@@H]3O)c(=O)[nH]1` [cGAMP, cyclic guanosine monophosphate-adenosine monophosphate], for which the “abundance of cellular NAD^+” value in test [1] is “significantly reduced the abundance of cellular NAD^+ in a STING-dependent manner”. The “cGAMP-induced suppression of protein PARylation in ATM-inhibited cells” value in test [2] (25 μM KU-55933) is on record as “proceeded normally in ATM-inhibited cells”. For the same compound, the “total cellular level of protein PARylation” value in test [2] (WT THP1, H2O2 or doxorubicin) is “substantially reduced total cellular level of protein PARylation”. Besides, the “PARP1 PARylation” value in test [2] (WT THP1, cGAMP 6 hours, H2O2 10 minutes, anti-PARP1 IP) is reported as “notably reduced”. Besides, the “STING requirement for cGAMP-induced suppression of protein PARylation” value in test [2] (WT and STING−/− THP1, 250 μM H2O2 10 minutes) is given as “STING was required”. Further, in test [3], the “CRISPR/Cas9-mediated HDR editing” value is “significantly diminished”, the “non-homologous end joining (NHEJ)” value is given as “unaffected” and the total editing frequency result is listed as “unaffected”. The “cGAMP-mediated induction of γH2AX and pCHK2” value in test [4] (IFNAR1 and STAT2 knockdown THP1 cells) was “failed to impede cGAMP-mediated induction of γH2AX and pCHK2”. Further, the “activation of DDR by cGAMP (H2AX, ATM, CHK2 phosphorylation)” value in test [4] (STING−/− THP1 cells, 16 hours) is recorded as “abrogated by the deletion of STING”. In addition, the “DDR activation (γH2AX, pCHK2)” value in test [4] (THP1, LPS 500 ng/ml 6 hours, cGAMP 16 hours) is “activated the DDR”. In addition, in test [4] (WT THP1), the “ATR phosphorylation (pATR)” value is recorded as “inducing ATR phosphorylation” and the “CHK1 activation (pCHK1)” value was “neither activation of CHK1”. The “cGAMP-induced DDR signaling” value in test [4] (cGAS−/− THP1 cells, 16 hours) is “proceeded normally in cGAS-deficient cells”. Further, the “γH2AX in target THP1 cells incubated with conditioned media from cGAMP treated cells” value in test [4] (conditioned media collected after 18 hours, 18 hours on target cells) is “failed to induce γH2AX”. Besides, the “cGAMP-induced DDR signaling” value in test [4] (shTBK1 knockdown THP1 cells) is “substantially reduced cGAMP-induced DDR signaling”. Also, in test [5], the “phosphorylation status of H2AX, STING, and STAT2” value is “respond normally to cGAMP stimulation”. Besides, the “dependence of DDR gene induction on STING and TBK1” value in test [6] (STING−/− THP1, 10 μM MRT67307 2 hours then cGAMP 6 hours) was “dependent on STING and TBK1”. For the same compound, the “induction of IFN genes (IFN-β and ISGs)” value in test [6] (THP1, exogenous cGAMP 1 μg vs transfected HT-DNA 2 μg) was “comparable to that of cytosolic DNA-induced, endogenously produced cGAMP”. Further, in test [6] (WT THP1, 6 hours), the CDKN1A/p21 transcript result is reported as “strong induction of CDKN1A/p21” and the “transcript abundance of E2F target genes” value is recorded as “decreased transcript abundance of E2F target genes”. Moreover, the “RIF1 and phospho-53BP1 foci formation” value in test [7] was “augmented the RIF1 and phospho-53BP1 foci formation”. Further, the EdU-positive cells result in test [8] was “diminished count of hRPE and STING-U2OS EdU-positive cells”.
